# Results published in US12168019B1, “8-hydroxy quinoline derivatives for enhancing telomerase reverse transcriptase (TERT) expression” (Sierra Sciences, Inc., priority 2010, dated 2024).
# Columns and labels:
# [1] = tested on: human TERT expression (hTERT mRNA transcripts); test: Quantitative real-time RT-PCR of hTERT mRNA transcripts in compound-treated cells; assay type: cell-based
# From the text: Telomerase is a ribonucleoprotein complex composed of the catalytic protein subunit (human telomerase reverse transcriptase or hTERT) and the RNA template. hTERT expression level can be measured by PCR.
# Quantitative Reverse Transcription PCR can be run according to procedures outlined in Yajima et al. (Yajima, T. et al. Quantitative Reverse Transcription-PCR Assay of the RNA Component of Human Telomerase Using the TaqMan Fluorogenic Detection System Clinical Chemistry, 44:12, 2441-2445, 1998).
# The principle of real-time PCR was first described by Heid et al. (Heid C. A., Stevens J., Livak K. J., Williams P. M. Real time quantitative PCR. Genome Res., 6: 986-994, 1996). Briefly, amplification of the target sequence is monitored per PCR cycle by detecting the fluorescence signal emitted by an internal probe that is degraded by the 5′ nuclease activity of the Taq polymerase. The emission signal accumulates in each sample, and the Ct required to reach a given fluorescence threshold is determined (Ct stands for Cycle Threshold and is a measure of the number of PCR cycles that are required to amplify a target—thus, a lower Ct score means that there is more abundant hTERT mRNA). Thus, the C1 value of a sample inversely correlates to the quantity of the starting cDNA which correlates to the number of mRNA transcripts. Using the cDNA of known quantity, a standard curve can be generated and used to determine the starting amount of mRNA transcripts based on the […] of each sample.
# Quantitative real-time PCR can be done on cDNA from test compound-treated and nontreated cells by use of a ABI Prism 7900 Sequence Detection System (PE Applied Biosystems, Foster City, CA) following the Assays-on-Demand protocol (PE Applied Biosystems, Foster City, CA). Quantitative data can be analyzed using the Sequence Detection System software version 2.1 (PE Applied Biosystems).
# The following compounds were tested in assays designed to identify compounds that enhance human TERT expression. The compounds turned on human TERT expression in these assays.
# viable cells in culture = test: Cell viability assay (CellTiter-Glo Luminescent Cell Viability Assay, ATP quantitation); assay type: cell-based; conditions: percent of DMSO vehicle control
# Method: Cell viability is determined using a homogeneous method, such as CellTiter-Glo® Luminescent Cell Viability Assay (Promega Corporation, Madison, WI) to determine the number of viable cells in culture These assays are based on quantitation of the ATP present, which signals the presence of metabolically active cells. Luminescent values of compound treated cells are compared to that of cells treated with vehicle alone to determine the average cell viability as a percent of control.
# Note: test concentration or dose not given here.
smiles,measurement,setting,value
Oc1c(CN2CCN(c3cccc(Cl)c3)CC2)cc(Br)c2cccnc12 [Compound 1002],Average Number of hTERT Transcripts,[1],14.79
same,Average Cell Viability after 24 Hours (% DMSO),viable cells in culture,57.7 % DMSO
COc1cc(C(Nc2ccccn2)c2ccc3cccnc3c2O)cc(Br)c1OC (stereo not shown) [Compound 1005],Average Number of hTERT Transcripts,[1],55.17
same,Average Cell Viability after 24 Hours (% DMSO),viable cells in culture,64.8 % DMSO
Oc1c(C(Nc2ccccn2)c2ccccc2Br)ccc2cccnc12 (stereo not shown) [Compound 1007],Average Number of hTERT Transcripts,[1],18.02
same,Average Cell Viability after 24 Hours (% DMSO),viable cells in culture,68 % DMSO
CCN(CC)c1ccc(C(NC(=O)C(C)C)c2cc(Cl)c3cccnc3c2O)cc1 (stereo not shown) [Compound 1011],Average Number of hTERT Transcripts,[1],14.2
same,Average Cell Viability after 24 Hours (% DMSO),viable cells in culture,64.5 % DMSO
Oc1c(I)cc(I)c2cccnc12 [Compound 1018],Average Number of hTERT Transcripts,[1],105.41
same,Average Cell Viability after 24 Hours (% DMSO),viable cells in culture,56.9 % DMSO
Oc1c(Cl)cc(Cl)c2cccnc12 [Compound 1020],Average Number of hTERT Transcripts,[1],45.03
same,Average Cell Viability after 24 Hours (% DMSO),viable cells in culture,25.1 % DMSO
CC(=O)NC(c1ccccc1Cl)c1ccc2cccnc2c1O (stereo not shown) [Compound 1025],Average Number of hTERT Transcripts,[1],113.98
same,Average Cell Viability after 24 Hours (% DMSO),viable cells in culture,93.5 % DMSO
CCC(=O)NC(c1ccc(OC)c(OC)c1)c1cc([N+](=O)[O-])c2cccnc2c1O (stereo not shown) [Compound 1028],Average Number of hTERT Transcripts,[1],65.66
same,Average Cell Viability after 24 Hours (% DMSO),viable cells in culture,80.69 % DMSO
O=[N+]([O-])c1cc(CN2CCN(c3ccccc3)CC2)c(O)c2ncccc12 [Compound 1029],Average Number of hTERT Transcripts,[1],5.3
same,Average Cell Viability after 24 Hours (% DMSO),viable cells in culture,32 % DMSO
COc1ccc(C(NC(C)=O)c2cc(Cl)c3cccnc3c2O)cc1OC (stereo not shown) [Compound 1038],Average Number of hTERT Transcripts,[1],28.95
same,Average Cell Viability after 24 Hours (% DMSO),viable cells in culture,80.33 % DMSO
O=C(NC(c1ccc(Cl)cc1)c1ccc2cccnc2c1O)C1CCCCC1 (stereo not shown) [Compound 1045],Average Number of hTERT Transcripts,[1],13.86
same,Average Cell Viability after 24 Hours (% DMSO),viable cells in culture,60.3 % DMSO
CCCCC(=O)NC(c1ccc2c(c1)OCO2)c1cc([N+](=O)[O-])c2cccnc2c1O (stereo not shown) [Compound 1046],Average Number of hTERT Transcripts,[1],158.46
same,Average Cell Viability after 24 Hours (% DMSO),viable cells in culture,78 % DMSO
CC(=O)NC(c1cccs1)c1cc(Cl)c2cccnc2c1O (stereo not shown) [Compound 1052],Average Number of hTERT Transcripts,[1],12.07
same,Average Cell Viability after 24 Hours (% DMSO),viable cells in culture,60.8 % DMSO
O=C(NC(c1ccc2c(c1)OCO2)c1cc([N+](=O)[O-])c2cccnc2c1O)C1CCCCC1 (stereo not shown) [Compound 1068],Average Number of hTERT Transcripts,[1],21.41
same,Average Cell Viability after 24 Hours (% DMSO),viable cells in culture,61.2 % DMSO
COc1ccc(C(NC(=O)C(C)C)c2cc([N+](=O)[O-])c3cccnc3c2O)cc1 (stereo not shown) [Compound 1073],Average Number of hTERT Transcripts,[1],103.42
same,Average Cell Viability after 24 Hours (% DMSO),viable cells in culture,80.1 % DMSO
CCCCC(=O)NC(c1ccc(O)c(OCC)c1)c1cc([N+](=O)[O-])c2cccnc2c1O (stereo not shown) [Compound 1075],Average Number of hTERT Transcripts,[1],83.26
same,Average Cell Viability after 24 Hours (% DMSO),viable cells in culture,82.63 % DMSO
Cc1cc(C)n(-c2ccc3c(Cl)cc(Cl)c(O)c3n2)n1 [Compound 1079],Average Number of hTERT Transcripts,[1],98.36
same,Average Cell Viability after 24 Hours (% DMSO),viable cells in culture,71.22 % DMSO
Cc1ccnc(NC(c2ccc([N+](=O)O)cc2)c2ccc3ccc(C)nc3c2O)c1 (stereo not shown) [Compound 1081],Average Number of hTERT Transcripts,[1],18.87
same,Average Cell Viability after 24 Hours (% DMSO),viable cells in culture,70.69 % DMSO
Cc1ccnc(NC(c2cccc([N+](=O)O)c2)c2ccc3ccc(C)nc3c2O)c1 (stereo not shown) [Compound 1084],Average Number of hTERT Transcripts,[1],11.54
same,Average Cell Viability after 24 Hours (% DMSO),viable cells in culture,65.08 % DMSO
Cc1ccc(S(=O)(=O)Nc2ccc(O)c3ncccc23)cc1 [Compound 1091],Average Number of hTERT Transcripts,[1],91.89
same,Average Cell Viability after 24 Hours (% DMSO),viable cells in culture,94.3 % DMSO
Cc1ccc(S(=O)(=O)Nc2cc(S(=O)(=O)c3ccc(C)cc3)c(O)c3ncccc23)cc1 [Compound 1093],Average Number of hTERT Transcripts,[1],160.48
same,Average Cell Viability after 24 Hours (% DMSO),viable cells in culture,66.5 % DMSO
Oc1c(C(Nc2ccccc2Cl)c2ccccn2)ccc2cccnc12 (stereo not shown) [Compound 1095],Average Number of hTERT Transcripts,[1],3.46
CCN(CC)Cc1ccc(O)c2ncccc12 [Compound 1096],Average Number of hTERT Transcripts,[1],48.25
COCc1cc(CN2CCCC2)c(O)c2ncccc12 [Compound 1097],Average Number of hTERT Transcripts,[1],77.36
COCc1cc(CN2CCCCC2)c(O)c2ncccc12 [Compound 1098],Average Number of hTERT Transcripts,[1],102.7
CCOCc1cc(CN2CCCCC2)c(O)c2ncccc12 [Compound 1099],Average Number of hTERT Transcripts,[1],67.59
CCCOCc1cc(CN2CCCCC2)c(O)c2ncccc12 [Compound 1100],Average Number of hTERT Transcripts,[1],9.12
same,Average Cell Viability after 24 Hours (% DMSO),viable cells in culture,56.1 % DMSO
CCCOCc1cc(CN2CCN(C)CC2)c(O)c2ncccc12 [Compound 1101],Average Number of hTERT Transcripts,[1],24.8
CC(C)OCc1cc(CN2CCCCC2)c(O)c2ncccc12 [Compound 1102],Average Number of hTERT Transcripts,[1],351.44
CC1CCN(Cc2cc(COC(C)C)c3cccnc3c2O)CC1 [Compound 1103],Average Number of hTERT Transcripts,[1],70.5
Cc1cc(NC(c2ccccn2)c2ccc3cccnc3c2O)no1 (stereo not shown) [Compound 1104],Average Number of hTERT Transcripts,[1],19.27
Cc1ccc2c(I)cc(I)c(O)c2n1 [Compound 1105],Average Number of hTERT Transcripts,[1],51.56
O=S1(=O)CCC(N2COc3c(cc(Cl)c4cccnc34)C2)C1 (stereo not shown) [Compound 1107],Average Number of hTERT Transcripts,[1],7.97
Cc1ccc2ccc(C(Nc3ccccn3)c3ccccc3Br)c(O)c2n1 (stereo not shown) [Compound 1108],Average Number of hTERT Transcripts,[1],31.13
O=C(CCc1ccccc1)NC(c1ccc(Cl)cc1)c1ccc2cccnc2c1O (stereo not shown) [Compound 1109],Average Number of hTERT Transcripts,[1],34.36
CC(C)C(=O)NC(c1ccccc1)c1cc([N+](=O)[O-])c2cccnc2c1O (stereo not shown) [Compound 1110],Average Number of hTERT Transcripts,[1],35.19
Cc1ccc2ccc(C(Nc3ccccn3)c3ccccc3Cl)c(O)c2n1 (stereo not shown) [Compound 1111],Average Number of hTERT Transcripts,[1],35.20
COc1ccc(C(NC(=O)C(C)C)c2cc([N+](=O)[O-])c3cccnc3c2O)cc1OC (stereo not shown) [Compound 1112],Average Number of hTERT Transcripts,[1],58.99
Oc1ccc(CN2CCN(c3cccc(Cl)c3)CC2)c2cccnc12 [Compound 1113],Average Number of hTERT Transcripts,[1],29.15
